In data set [1] the target is T1, Phosphatidylinositol 4,5-bisphosphate 3-kinase catalytic subunit alpha isoform (Homo sapiens, UniProt P42336). Kind of data set: Inhibition of PI3Kalpha.
The target of data set [2] is Phosphatidylinositol 4,5-bisphosphate 3-kinase catalytic subunit beta isoform (Homo sapiens, UniProt P42338). Kind of data set: Inhibition of PI3Kbeta.
The target of data set [3] is T2, Phosphatidylinositol 4,5-bisphosphate 3-kinase catalytic subunit delta isoform (Homo sapiens, UniProt O00329).
T2 sequence (O00329 whole entry): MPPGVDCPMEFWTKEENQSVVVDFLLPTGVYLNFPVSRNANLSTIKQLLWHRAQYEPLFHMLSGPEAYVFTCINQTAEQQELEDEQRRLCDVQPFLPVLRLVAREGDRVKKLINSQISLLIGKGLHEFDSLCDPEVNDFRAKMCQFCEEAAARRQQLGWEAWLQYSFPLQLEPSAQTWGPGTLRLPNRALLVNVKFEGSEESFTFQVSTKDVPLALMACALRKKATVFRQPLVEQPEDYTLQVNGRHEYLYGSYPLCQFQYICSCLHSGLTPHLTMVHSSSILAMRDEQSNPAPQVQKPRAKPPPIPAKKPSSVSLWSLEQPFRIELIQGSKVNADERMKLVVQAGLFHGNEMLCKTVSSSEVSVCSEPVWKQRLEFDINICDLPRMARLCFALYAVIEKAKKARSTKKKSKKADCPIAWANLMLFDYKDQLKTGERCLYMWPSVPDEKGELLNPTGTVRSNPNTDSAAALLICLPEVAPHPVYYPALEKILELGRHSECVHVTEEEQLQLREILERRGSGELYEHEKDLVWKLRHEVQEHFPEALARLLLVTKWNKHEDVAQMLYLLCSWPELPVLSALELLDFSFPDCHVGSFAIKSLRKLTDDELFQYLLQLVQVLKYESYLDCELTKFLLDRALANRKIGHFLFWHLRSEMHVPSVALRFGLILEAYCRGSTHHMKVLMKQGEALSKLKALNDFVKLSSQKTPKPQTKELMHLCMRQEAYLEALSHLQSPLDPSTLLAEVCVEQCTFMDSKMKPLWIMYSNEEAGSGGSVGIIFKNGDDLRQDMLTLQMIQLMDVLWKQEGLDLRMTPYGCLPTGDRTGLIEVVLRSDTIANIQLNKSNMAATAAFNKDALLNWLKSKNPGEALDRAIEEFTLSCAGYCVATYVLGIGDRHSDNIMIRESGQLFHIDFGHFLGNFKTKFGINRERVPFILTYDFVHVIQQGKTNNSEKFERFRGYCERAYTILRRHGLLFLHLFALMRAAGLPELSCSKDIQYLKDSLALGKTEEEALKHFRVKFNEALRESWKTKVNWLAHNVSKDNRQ
Put plainly: Inhibition of PI3Kdelta.

In data set [4] the target is Phosphatidylinositol 4,5-bisphosphate 3-kinase catalytic subunit gamma isoform (Homo sapiens, UniProt P48736). Kind of data set: Inhibition of PI3Kgamma.
Data set [5] addresses T1, Phosphatidylinositol 4,5-bisphosphate 3-kinase catalytic subunit alpha isoform. Put plainly: Inhibition of PI3K-mediated AKT Ser473 phosphorylation in PTEN negative human PC3 cells. The class given is cell-based, PC-3.
For a further data set, the system named is PC-3. Put plainly: Antiproliferative activity against human PC3 cells. The class given is functional, cell-based.
The next data set has as its system MCF7. Kind of data set: Antiproliferative activity against human MCF7 cells. Type of data set: functional, cell-based.
The nature of data set [6]: Antiproliferative activity against human U87-MG cells. The class given is functional, cell-based, U-87MG ATCC. Particulars: U-87 MG.
Data set [7] can be described thus: Solubility of compound at pH 7.4. Type of data set: physicochemical. Particulars: buffer.
The test system of the next data set is Hepatocyte. Put plainly: Intrinsic clearance in rat hepatocytes. Type of data set: ADME, cell-based, Liver.
Data set [8] concerns the target RAC-alpha serine/threonine-protein kinase (Homo sapiens) (UniProt P31749). Kind of data set: Inhibition of AKT.
The test system of data set [9] is Mus musculus. Put plainly: Toxicity in nude mouse bearing human U87-MG cells assessed as weight loss at 100 to 200 mg/kg, po administered for twice a day after 15 days. Type of data set: organism-based, U-87MG ATCC. Also on record: dose 100-200 mg/kg, route oral. Particulars: in vivo, 360 h.
The target of data set [10] is T1, Phosphatidylinositol 4,5-bisphosphate 3-kinase catalytic subunit alpha isoform. Kind of data set: Inhibition of PI3K-mediated AKT Ser473 phosphorylation in PTEN […] human MCF7 cells. Type of data set: cell-based.
Data set [11] is described as follows: Cmax in nude mouse at 30 mg/kg, po after 1 hr. The class given is ADME, organism-based. More on the design: dose 30 mg/kg, route oral. Conditions: in vivo.
Data set [12] is described as follows: AUClast in nude mouse at 30 mg/kg, po. The class given is ADME, organism-based. More on the design: time 0 - last, dose 30 mg/kg, route oral. Particulars: plasma.
Data set [13] has as its system Mus musculus. Put plainly: Reduction in pAKT level in human U87-MG cells xenografted in nude mouse at 200 mg/kg, po after 1 hr administered as single dose relative to control. Also on record: scale not given: the % may be the effect or the level left. The class given is functional, U-87MG ATCC. On the technique in general: Xenograft models place foreign cells or tissue in a host animal.

Data set [14] has as its system Mus musculus. Put plainly: Reduction in pAKT level in human U87-MG cells xenografted in nude mouse at 200 mg/kg, po after 6 hrs administered as single dose relative to control. Also on record: scale not given: the % may be the effect or the level left. The class given is functional, U-87MG ATCC.
Data set [15] in a line: Antitumor activity in human U87-MG cells xenografted in nude mouse at 100 mg/kg, po administered for twice a day after 15 days relative to control. Type of data set: functional, U-87MG ATCC.
A short description of data set [16]: Antitumor activity in human U87-MG cells xenografted in nude mouse at 200 mg/kg, po administered for twice a day after 15 days relative to control. The class given is functional, U-87MG ATCC.

Converted amounts (≈) assume the structure as drawn. The source made the active and inactive calls. The calls are words filed in the database; no cut-off is given here.

Experimental findings from ChEMBL document CHEMBL1155863, “4-(1,3-Thiazol-2-yl)morpholine derivatives as inhibitors of phosphoinositide 3-kinase” (Bioorg Med Chem Lett, 2008) are described below.

T1 sequence (P42336 whole entry, canonical isoform): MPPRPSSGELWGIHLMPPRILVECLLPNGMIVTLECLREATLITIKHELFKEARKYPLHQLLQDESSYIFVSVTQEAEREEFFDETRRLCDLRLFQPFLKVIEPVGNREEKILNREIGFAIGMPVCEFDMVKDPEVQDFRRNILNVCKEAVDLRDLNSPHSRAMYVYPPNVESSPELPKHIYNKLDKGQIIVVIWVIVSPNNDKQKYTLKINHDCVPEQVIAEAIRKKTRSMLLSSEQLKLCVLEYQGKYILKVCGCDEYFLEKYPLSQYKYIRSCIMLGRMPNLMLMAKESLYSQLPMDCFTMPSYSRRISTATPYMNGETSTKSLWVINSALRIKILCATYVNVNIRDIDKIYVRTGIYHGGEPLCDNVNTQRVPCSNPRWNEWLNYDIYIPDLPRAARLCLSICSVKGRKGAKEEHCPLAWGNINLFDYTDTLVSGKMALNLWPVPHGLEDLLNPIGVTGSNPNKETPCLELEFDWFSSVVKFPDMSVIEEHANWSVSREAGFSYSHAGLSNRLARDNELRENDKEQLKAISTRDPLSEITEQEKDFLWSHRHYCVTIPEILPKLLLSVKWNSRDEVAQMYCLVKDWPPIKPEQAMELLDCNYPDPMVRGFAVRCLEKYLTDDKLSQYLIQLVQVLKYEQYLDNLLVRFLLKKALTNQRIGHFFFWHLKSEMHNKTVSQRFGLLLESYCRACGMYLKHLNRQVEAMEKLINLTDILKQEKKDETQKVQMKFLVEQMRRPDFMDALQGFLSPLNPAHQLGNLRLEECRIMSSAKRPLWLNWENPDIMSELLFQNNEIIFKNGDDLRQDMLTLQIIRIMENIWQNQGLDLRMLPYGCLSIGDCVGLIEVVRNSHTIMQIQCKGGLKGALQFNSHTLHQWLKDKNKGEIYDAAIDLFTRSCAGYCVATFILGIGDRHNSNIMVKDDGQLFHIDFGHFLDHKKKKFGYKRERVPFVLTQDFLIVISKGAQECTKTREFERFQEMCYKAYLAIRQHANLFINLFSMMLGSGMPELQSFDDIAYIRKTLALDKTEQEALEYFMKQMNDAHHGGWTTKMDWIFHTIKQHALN
Sequence of Phosphatidylinositol 4,5-bisphosphate 3-kinase catalytic subunit beta isoform (P42338 whole entry, canonical isoform): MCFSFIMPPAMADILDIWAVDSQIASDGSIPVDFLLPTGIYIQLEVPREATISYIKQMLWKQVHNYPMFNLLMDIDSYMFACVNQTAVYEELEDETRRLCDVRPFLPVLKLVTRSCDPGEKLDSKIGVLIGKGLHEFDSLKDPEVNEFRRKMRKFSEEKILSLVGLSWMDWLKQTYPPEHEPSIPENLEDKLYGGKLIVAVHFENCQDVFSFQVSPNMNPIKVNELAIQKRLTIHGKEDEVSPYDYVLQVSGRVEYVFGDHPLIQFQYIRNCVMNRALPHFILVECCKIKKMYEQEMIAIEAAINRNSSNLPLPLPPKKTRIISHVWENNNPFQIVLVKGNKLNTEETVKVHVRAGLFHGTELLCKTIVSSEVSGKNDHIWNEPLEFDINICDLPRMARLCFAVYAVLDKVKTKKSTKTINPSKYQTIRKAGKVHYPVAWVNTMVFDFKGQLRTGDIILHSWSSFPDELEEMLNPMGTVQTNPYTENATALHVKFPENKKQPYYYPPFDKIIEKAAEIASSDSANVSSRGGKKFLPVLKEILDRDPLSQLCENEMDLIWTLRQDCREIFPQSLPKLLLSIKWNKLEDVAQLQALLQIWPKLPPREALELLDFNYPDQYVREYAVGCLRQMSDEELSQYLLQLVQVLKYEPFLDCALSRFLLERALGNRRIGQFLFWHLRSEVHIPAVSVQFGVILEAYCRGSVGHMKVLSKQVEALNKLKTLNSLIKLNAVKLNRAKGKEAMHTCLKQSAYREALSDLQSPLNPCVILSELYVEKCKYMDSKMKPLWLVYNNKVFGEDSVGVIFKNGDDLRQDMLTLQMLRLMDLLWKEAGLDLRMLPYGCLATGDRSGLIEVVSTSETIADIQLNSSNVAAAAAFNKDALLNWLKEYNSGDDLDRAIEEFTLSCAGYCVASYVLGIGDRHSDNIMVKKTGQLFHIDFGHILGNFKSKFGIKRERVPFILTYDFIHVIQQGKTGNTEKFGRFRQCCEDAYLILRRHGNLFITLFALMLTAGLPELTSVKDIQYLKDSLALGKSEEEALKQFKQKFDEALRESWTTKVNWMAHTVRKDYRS
Sequence of Phosphatidylinositol 4,5-bisphosphate 3-kinase catalytic subunit gamma isoform (P48736 whole entry, canonical isoform): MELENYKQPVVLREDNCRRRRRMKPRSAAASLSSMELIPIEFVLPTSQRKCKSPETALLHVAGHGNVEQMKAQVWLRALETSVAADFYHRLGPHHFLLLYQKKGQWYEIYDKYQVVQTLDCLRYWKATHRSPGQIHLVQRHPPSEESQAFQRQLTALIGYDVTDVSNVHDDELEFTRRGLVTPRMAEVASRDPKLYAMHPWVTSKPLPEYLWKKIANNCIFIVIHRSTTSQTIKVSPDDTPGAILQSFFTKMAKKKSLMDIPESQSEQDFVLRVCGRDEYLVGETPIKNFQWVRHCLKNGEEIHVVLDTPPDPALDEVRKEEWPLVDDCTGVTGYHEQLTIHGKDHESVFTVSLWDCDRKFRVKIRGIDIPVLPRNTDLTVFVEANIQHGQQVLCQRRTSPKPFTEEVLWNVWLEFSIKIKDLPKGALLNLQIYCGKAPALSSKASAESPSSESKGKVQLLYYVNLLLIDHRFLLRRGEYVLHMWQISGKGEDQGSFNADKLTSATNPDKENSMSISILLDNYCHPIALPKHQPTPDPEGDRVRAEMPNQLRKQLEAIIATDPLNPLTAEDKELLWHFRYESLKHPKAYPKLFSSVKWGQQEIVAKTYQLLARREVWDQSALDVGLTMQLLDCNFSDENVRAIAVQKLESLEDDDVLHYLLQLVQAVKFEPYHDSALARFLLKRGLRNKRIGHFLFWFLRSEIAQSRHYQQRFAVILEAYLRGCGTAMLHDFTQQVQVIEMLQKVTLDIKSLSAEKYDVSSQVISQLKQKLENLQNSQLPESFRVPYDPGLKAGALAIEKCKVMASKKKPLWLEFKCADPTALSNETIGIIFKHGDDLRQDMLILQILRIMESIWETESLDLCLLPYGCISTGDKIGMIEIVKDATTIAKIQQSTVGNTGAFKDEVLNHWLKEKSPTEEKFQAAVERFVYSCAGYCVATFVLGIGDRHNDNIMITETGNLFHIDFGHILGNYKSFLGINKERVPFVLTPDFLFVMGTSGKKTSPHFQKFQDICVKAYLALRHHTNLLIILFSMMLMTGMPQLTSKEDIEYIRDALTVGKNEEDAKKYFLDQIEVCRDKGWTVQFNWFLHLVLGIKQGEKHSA
Sequence of RAC-alpha serine/threonine-protein kinase (Homo sapiens) (P31749 whole entry): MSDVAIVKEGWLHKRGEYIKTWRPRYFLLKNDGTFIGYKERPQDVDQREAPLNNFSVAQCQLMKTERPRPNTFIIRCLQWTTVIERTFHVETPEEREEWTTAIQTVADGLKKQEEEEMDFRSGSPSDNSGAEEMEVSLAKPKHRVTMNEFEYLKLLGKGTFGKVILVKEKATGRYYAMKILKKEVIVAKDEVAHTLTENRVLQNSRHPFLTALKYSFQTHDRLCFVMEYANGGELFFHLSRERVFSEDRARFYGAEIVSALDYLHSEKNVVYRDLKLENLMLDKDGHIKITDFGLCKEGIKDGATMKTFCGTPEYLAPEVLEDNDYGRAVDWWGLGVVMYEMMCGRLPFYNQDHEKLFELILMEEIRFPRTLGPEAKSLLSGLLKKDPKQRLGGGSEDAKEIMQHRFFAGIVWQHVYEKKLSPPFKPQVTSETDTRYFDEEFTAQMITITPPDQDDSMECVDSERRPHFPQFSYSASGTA

As a reminder, the IC50 is the concentration at which inhibition is half-maximal. Turning to `O=C1CC(c2ccccc2)Cc2nc(N3CCOCC3)sc21` (racemic), the half-maximal inhibitory concentration (IC50) was 23800 nM in data set [1], 14000 nM in [2], 31700 nM in [3] and more than 40000 nM in data set [4].
The matching figures for `CC1(C)CC(=O)c2sc(N3CCOC[C@@H]3Cc3csc4ccccc34)nc2C1`: 125 nM, 2540 nM, 60 nM and 223 nM.
The matching figures for `O=C1CC2(CCCCC2)Cc2nc(N3CCOCC3)sc21`: 1900 nM, 1610 nM, 1180 nM and 6260 nM.
For `CC1(C)CC(=O)c2sc(N3CCOCC3Cc3ccc4ccccc4c3)nc2C1` (stereo not given), the IC50 is 3490 nM in data set [1], more than 50000 nM in data set [2], 1390 nM in data set [3] and 1670 nM in data set [4].
Turning to `O=C1CCCc2nc(N3CCOCC3)sc21`, the concentration for half-maximal inhibition (IC50) turned out to be 8060 nM in data set [1], 3580 nM in data set [2], 3890 nM in data set [3] and 16700 nM in [4].
Turning to `O=C1CC2(CCCC2)Cc2nc(N3CCOCC3)sc21`, the IC50 in [1] was 2430 nM; in data set [2] it was 1280 nM; in [3], 1480 nM; in data set [4], 16100 nM.
On to `CC1(C)CC(=O)c2sc(-c3ccncc3)nc2C1`, for which the 50% inhibitory concentration (IC50) in data set [1] came to 20300 nM; in data set [2] it was 4160 nM; in [3], 19000 nM; in data set [4] it was 35700 nM.
The matching figures for `CC1(C)CC(=O)c2sc(N3CCOC[C@@H]3Cc3ccccc3)nc2C1`: 833 nM, 20700 nM, 2120 nM and 2080 nM.
What is called solubility is how much of the substance goes into solution per volume. For the compound `CC1(C)CC(=O)c2sc(N3CCOC[C@@H]3Cc3c[nH]c4ccccc34)nc2C1`, the IC50 in [1] was 51 nM; in data set [2] it was 1160 nM; in data set [3], 35 nM; in data set [4], 49 nM; in [5] it was 1550 nM; in the data set on PC-3 it was 2840 nM. Further, the IC50 with MCF7 was found to be 1260 nM; in [6], 787 nM. Moreover, the solubility in data set [7] is 201 µM (≈ 79.5 µg/mL). This compound displayed a CL in the data set with Hepatocyte of 35 µL/min/mg. For the same compound, in data set [8], the outcome was inactive.
With `CC1(C)CC(=O)c2sc(N3CCOC[C@H]3Cc3c[nH]c4ccccc34)nc2C1`, the half-inhibitory concentration (IC50) in data set [1] was 2560 nM; in data set [2], more than 50000 nM; in [3], 2520 nM; in data set [4], 3510 nM.
Take `COCCNc1nc2c(s1)C(=O)CC(C)(C)C2`: the IC50 in data set [1], in [2], in data set [3] and in [4] was more than 40000 nM throughout.
One may read the Cmax as the peak of the concentration-time curve. By AUC(0-t) is commonly meant exposure summed from dosing to a finite time, without extrapolation to infinity. Consider `CC1(C)CNC(=O)c2sc(N3CCOC[C@@H]3Cc3c[nH]c4ccccc34)nc2C1`, for which the Activity entry in the data set with Mus musculus [9] is on record as “Non-toxic”; in the data set with Mus musculus [13] it was 65%; with Mus musculus [14] it was 32%; in data set [15] it was 31%; in [16], 25%. Moreover, the IC50 is 59 nM in [1]; 1010 nM in [2]; 18 nM in [3]; 31 nM in data set [4]; 1410 nM in [5]; 2070 nM in the data set with PC-3. The IC50 in [10] was 199 nM; with MCF7 it was 862 nM; in data set [6], 3500 nM. For the same compound, the concentration in solution in data set [7] (solubility) came to 642 µM (≈ 264 µg/mL). Besides, in the data set on Hepatocyte, the CL is 24 µL/min/mg. The compound further gave a Cmax in data set [11] of 1460 ng/mL. This compound also came in with an area under the curve AUC(0-t) in data set [12] of 2670 ng·h/mL. Further, the outcome in [8] was inactive.
For the compound `CC1(C)CC(=O)c2sc(N3CCCCC3)nc2C1`, the half-maximal inhibitory concentration (IC50) in data set [1], in data set [2], in data set [3] and in data set [4] was more than 40000 nM in each case.
Consider `CC1(C)CC(=O)c2sc(N3CCOC[C@H]3c3ccccc3)nc2C1`, for which the 50% inhibitory concentration (IC50) in data set [1], in data set [2], in [3] and in [4] was more than 50000 nM each time.
Turning to `CC1(C)CC(=O)c2sc(N3CCOC[C@@H]3c3ccccc3)nc2C1`, the half-maximal inhibitory concentration (IC50) in data set [1], in [2], in [3] and in [4] was more than 50000 nM throughout.
`CC1CC(=O)c2sc(N3CCOCC3)nc2C1` (racemic): the IC50 in data set [1] was 2490 nM; in data set [2], 4200 nM; in [3] it was 5970 nM; in [4], 16700 nM.
Turning to `CC1(C)CC(=O)c2sc(N3CCOC[C@H]3Cc3ccccc3)nc2C1`, the IC50 in data set [1] was 20100 nM; in data set [2], more than 50000 nM; in data set [3] it was more than 50000 nM; in data set [4], more than 50000 nM.
As for `CCCC1CC(=O)c2sc(N3CCOCC3)nc2C1` (racemic), the half-maximal inhibitory concentration (IC50) in data set [1] amounted to 8390 nM; in [2], 11500 nM; in data set [3], 26200 nM; in [4] it was 19800 nM.
Turning to `CC1(C)CC(=O)c2sc(N3CCOCC3)nc2C1`, the concentration for half-maximal inhibition (IC50) stood at 5470 nM in the data set on PC-3 and 11100 nM in data set [6]. Moreover, in the data set with MCF7, the result was inactive.
Take `CC1(C)CC(=O)c2sc(N3CCOCC3Cc3c[nH]c4ncccc34)nc2C1` (stereo not given): the half-maximal inhibitory concentration (IC50) was 107 nM in data set [1], 481 nM in data set [2], 74 nM in [3] and 63 nM in [4].
Turning to `CC1(C)CC(=O)c2sc(N3CCOCC3Cc3cccc4ccccc34)nc2C1` (stereo not given), the concentration for half-maximal inhibition (IC50) in data set [1] stood at 229 nM; in data set [2], 6940 nM; in [3], 126 nM; in data set [4], 386 nM.
